Data as given in patent US12599136B2, “Substituted isophthalic acid diamides and their use as herbicides” (Bayer Aktiengesellschaft, priority 2020, dated 2026).

Columns and labels:
Format in all cases: in vivo
Alopecurus myosuroides [1] = assay: Pre-emergence herbicidal action against ALOMY; conditions: visual score after 3 weeks vs untreated controls
Procedure, shortened: (§1)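 Pre-emergence soil-surface spray of formulated compound (WP or EC; 600 to 800 l/ha; 0.2% wetting agent) over seeds sown in sandy loam. After 3 weeks under greenhouse conditions, damage is estimated visually in percent against untreated plants.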

Abutilon theophrasti [2] = assay: Post-emergence herbicidal action against ABUTH
Procedure, shortened: (§2)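 Spray, one-leaf stage: WP or EC compound in water, 600–800 l/ha, 0.2% wetting agent. Plants held about 3 weeks in the greenhouse, then visually rated in percent of kill compared with untreated controls.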

Abutilon theophrasti [3] = assay: Pre-emergence herbicidal action against ABUTH; conditions: visual score after 3 weeks vs untreated controls
Procedure, shortened: as §1

Lolium rigidum [4] = assay: Post-emergence herbicidal action against LOLRI; conditions: 80 g/ha
Procedure, shortened: as §2

Setaria viridis [5] = assay: Post-emergence herbicidal action against SETVI; conditions: visual assessment about 3 weeks after treatment
Procedure, shortened: as §2

Avena fatua [6] = assay: Pre-emergence herbicidal action against AVEFA; conditions: visual score after 3 weeks vs untreated controls
Procedure, shortened: as §1

Setaria viridis [7] = assay: Pre-emergence herbicidal action against SETVI
Procedure, shortened: as §1

Amaranthus retroflexus [8] = assay: Pre-emergence herbicidal action against AMARE; conditions: visual score after 3 weeks vs untreated controls
Procedure, shortened: as §1

Cyperus esculentus [9] = assay: Pre-emergence herbicidal action against CYPES; conditions: visual score after 3 weeks vs untreated controls
Procedure, shortened: as §1

Veronica persica [10] = assay: Pre-emergence herbicidal action against VERPE
Procedure, shortened: as §1

Hordeum murinum [11] = assay: Pre-emergence herbicidal action against HORMU; conditions: visual score after 3 weeks vs untreated controls
Procedure, shortened: as §1

Stellaria media [12] = assay: Post-emergence herbicidal action against STEME; conditions: visual assessment about 3 weeks after treatment
Procedure, shortened: as §2

Viola tricolor [13] = assay: Pre-emergence herbicidal action against VIOTR
Procedure, shortened: as §1

Stellaria media [14] = assay: Pre-emergence herbicidal action against STEME
Procedure, shortened: as §1

Cyperus esculentus [15] = assay: Post-emergence herbicidal action against CYPES; conditions: 80 g/ha, visual assessment about 3 weeks after treatment
Procedure, shortened: as §2

Lolium rigidum [16] = assay: Pre-emergence herbicidal action against LOLRI
Procedure, shortened: as §1

Viola tricolor [17] = assay: Post-emergence herbicidal action against VIOTR
Procedure, shortened: as §2

Amaranthus retroflexus [18] = assay: Post-emergence herbicidal action against AMARE; conditions: visual assessment about 3 weeks after treatment
Procedure, shortened: as §2

Avena fatua [19] = assay: Post-emergence herbicidal action against AVEFA; conditions: 80 g/ha, visual assessment about 3 weeks after treatment
Procedure, shortened: as §2

Echinochloa crus-galli [20] = assay: Post-emergence herbicidal action against ECHCG; conditions: visual assessment about 3 weeks after treatment
Procedure, shortened: as §2

Echinochloa crus-galli [21] = assay: Pre-emergence herbicidal action against ECHCG; conditions: visual score after 3 weeks vs untreated controls
Procedure, shortened: as §1

Veronica persica [22] = assay: Post-emergence herbicidal action against VERPE; conditions: 80 g/ha, visual assessment about 3 weeks after treatment
Procedure, shortened: as §2

Polygonum convolvulus [23] = assay: Post-emergence herbicidal action against POLCO; conditions: 80 g/ha, visual assessment about 3 weeks after treatment
Procedure, shortened: as §2

Polygonum convolvulus [24] = assay: Pre-emergence herbicidal action against POLCO
Procedure, shortened: as §1

Pharbitis purpurea [25] = assay: Pre-emergence herbicidal action against PHBPU; conditions: visual score after 3 weeks vs untreated controls
Procedure, shortened: as §1

Pharbitis purpurea [26] = assay: Post-emergence herbicidal action against PHBPU; conditions: visual assessment about 3 weeks after treatment
Procedure, shortened: as §2

Matricaria inodora [27] = assay: Pre-emergence herbicidal action against MATIN; conditions: visual score after 3 weeks vs untreated controls
Procedure, shortened: as §1

Matricaria inodora [28] = assay: Post-emergence herbicidal action against MATIN; conditions: visual assessment about 3 weeks after treatment
Procedure, shortened: as §2

Alopecurus myosuroides [29] = assay: Post-emergence herbicidal action against ALOMY
Procedure, shortened: as §2

Hordeum murinum [30] = assay: Post-emergence herbicidal action against HORMU
Procedure, shortened: as §2

Cn1nnnc1NC(=O)c1ccc(C(F)(F)F)c(C(=O)n2cccn2)c1Cl [Example 1-153]
80%: Pre-emergence action against ALOMY (Alopecurus myosuroides [1]; 80 g/ha) | Pre-emergence action against HORMU (Hordeum murinum [11]; 80 g/ha) | Pre-emergence action against LOLRI (Lolium rigidum [16]; 80 g/ha) | Post-emergence action against VIOTR in % (Viola tricolor [17]; 5 g/ha) | Post-emergence action against VERPE in % (Veronica persica [22]) | Post-emergence action against PHBPU in % (Pharbitis purpurea [26]; 5 g/ha) | Post-emergence action against ALOMY (Alopecurus myosuroides [29]; 5 g/ha) | Post-emergence action against HORMU in % (Hordeum murinum [30]; 20 g/ha)
90%: Post-emergence action against ABUTH (Abutilon theophrasti [2]; 5 g/ha) | Post-emergence action against ABUTH (Abutilon theophrasti [2]; 20 g/ha) | Post-emergence action against ABUTH (Abutilon theophrasti [2]; 80 g/ha) | Post-emergence action against LOLRI in % (Lolium rigidum [4]) | Pre-emergence action against VERPE (Veronica persica [10]; 80 g/ha) | Pre-emergence action against STEME (Stellaria media [14]; 20 g/ha) | Pre-emergence action against STEME (Stellaria media [14]; 80 g/ha) | Post-emergence action against CYPES in % (Cyperus esculentus [15]) | Pre-emergence action against LOLRI (Lolium rigidum [16]; 320 g/ha) | Post-emergence action against VIOTR in % (Viola tricolor [17]; 20 g/ha) | Post-emergence action against VIOTR in % (Viola tricolor [17]; 80 g/ha) | Post-emergence action against ECHCG in % (Echinochloa crus-galli [20]; 5 g/ha) | Post-emergence action against POLCO in % (Polygonum convolvulus [23]) | Pre-emergence action against POLCO (Polygonum convolvulus [24]; 80 g/ha) | Pre-emergence action against PHBPU (Pharbitis purpurea [25]; 80 g/ha) | Pre-emergence action against PHBPU (Pharbitis purpurea [25]; 320 g/ha) | Post-emergence action against PHBPU in % (Pharbitis purpurea [26]; 20 g/ha) | Post-emergence action against PHBPU in % (Pharbitis purpurea [26]; 80 g/ha) | Pre-emergence action against MATIN (Matricaria inodora [27]; 20 g/ha) | Post-emergence action against MATIN in % (Matricaria inodora [28]; 5 g/ha) | Post-emergence action against MATIN in % (Matricaria inodora [28]; 20 g/ha) | Post-emergence action against ALOMY (Alopecurus myosuroides [29]; 20 g/ha) | Post-emergence action against ALOMY (Alopecurus myosuroides [29]; 80 g/ha) | Post-emergence action against HORMU in % (Hordeum murinum [30]; 80 g/ha)
100%: Pre-emergence action against ALOMY (Alopecurus myosuroides [1]; 320 g/ha) | Pre-emergence action against ABUTH (Abutilon theophrasti [3]; 20 g/ha) | Pre-emergence action against ABUTH (Abutilon theophrasti [3]; 80 g/ha) | Pre-emergence action against ABUTH (Abutilon theophrasti [3]; Dosage column 320 g/ha (heading prints 3200 g/ha)) | Post-emergence action against SETVI in % (Setaria viridis [5]; 20 g/ha) | Post-emergence action against SETVI in % (Setaria viridis [5]; 80 g/ha) | Pre-emergence action against AVEFA (Avena fatua [6]; 80 g/ha) | Pre-emergence action against AVEFA (Avena fatua [6]; 320 g/ha) | Pre-emergence action against SETVI (Setaria viridis [7]; 20 g/ha) | Pre-emergence action against SETVI (Setaria viridis [7]; 80 g/ha) | Pre-emergence action against SETVI (Setaria viridis [7]; 320 g/ha) | Pre-emergence action against AMARE (Amaranthus retroflexus [8]; 20 g/ha) | Pre-emergence action against AMARE (Amaranthus retroflexus [8]; 80 g/ha) | Pre-emergence action against AMARE (Amaranthus retroflexus [8]; 320 g/ha) | Pre-emergence action against CYPES (Cyperus esculentus [9]; 20 g/ha) | Pre-emergence action against CYPES (Cyperus esculentus [9]; 80 g/ha) | Pre-emergence action against CYPES (Cyperus esculentus [9]; 320 g/ha) | Pre-emergence action against VERPE (Veronica persica [10]; 320 g/ha) | Pre-emergence action against HORMU (Hordeum murinum [11]; 320 g/ha) | Post-emergence action against STEME in % (Stellaria media [12]; 5 g/ha) | Post-emergence action against STEME in % (Stellaria media [12]; 20 g/ha) | Post-emergence action against STEME in % (Stellaria media [12]; 80 g/ha) | Pre-emergence action against VIOTR (Viola tricolor [13]; 80 g/ha) | Pre-emergence action against VIOTR (Viola tricolor [13]; 320 g/ha) | Pre-emergence action against STEME (Stellaria media [14]; 320 g/ha) | Post-emergence action against AMARE in % (Amaranthus retroflexus [18]; 5 g/ha) | Post-emergence action against AMARE in % (Amaranthus retroflexus [18]; 20 g/ha) | Post-emergence action against AMARE in % (Amaranthus retroflexus [18]; 80 g/ha) | Post-emergence action against AVEFA in % (Avena fatua [19]) | Post-emergence action against ECHCG in % (Echinochloa crus-galli [20]; 20 g/ha) | Post-emergence action against ECHCG in % (Echinochloa crus-galli [20]; 80 g/ha) | Pre-emergence action against ECHCG (Echinochloa crus-galli [21]; 20 g/ha) | Pre-emergence action against ECHCG (Echinochloa crus-galli [21]; 80 g/ha) | Pre-emergence action against ECHCG (Echinochloa crus-galli [21]; 320 g/ha) | Pre-emergence action against POLCO (Polygonum convolvulus [24]; 320 g/ha) | Pre-emergence action against MATIN (Matricaria inodora [27]; 80 g/ha) | Pre-emergence action against MATIN (Matricaria inodora [27]; 320 g/ha) | Post-emergence action against MATIN in % (Matricaria inodora [28]; 80 g/ha)
